The assay relates to F. nucleatum. The assay can be described thus: MIC assay for bactericidal activity (microtiter format). The class given is cell-based. Set-up: MIC Value: unit not given here. The note with it: for MIC Value: individual flavors, 1% by weight solution in ethanol, F. nucleatum, lower = more effective; for bactericidal activity against F. nucleatum (in words): summary of Table I. The procedure: A 1% by weight solution in ethanol of a series of individual essential oil flavors were prepared and evaluated in an MIC assay for bactericidal activity against F. nucleatum. The bacterial strain F. nucleatum is implicated in the occurrence of oral malodor.
The bacterial strains of F. nucleatum were grown […] in thioglycolate broth for 48 hours at 37° C. The optical density at 610 nm was adjusted to between 0.1 to 0.2 prior the MIC determination.
MIC determinations were performed using the microtiter format according to standard procedures (Manual of clinical Microbiology, 1995).
The procedure of Example 1 was repeated except combinations of various flavor compounds were evaluated for antibacterial efficacy via the MIC assay.

For the compound `CC=Cc1ccc(OC)cc1` [Anethol], the “MIC Value” was found to be 500. Consider `O=C/C=C/c1ccccc1` [Cinnamic aldehyde], for which the “MIC Value” stood at 125 and the “bactericidal activity against F. nucleatum (in words)” value (from here on “bactericidal activity”) is on record as “good bactericidal activity”.

On to `CC12CCC(CC1)C(C)(C)O2` [Eucalyptol], for which the “MIC Value” is 500. `C=CCc1ccc(O)c(OC)c1` [Eugenol]: the “MIC Value” turned out to be 250 and the “bactericidal activity” value is “good bactericidal activity”. For `CC(C)[C@@H]1CC[C@@H](C)C[C@H]1O` [L-menthol], the “MIC Value” worked out at 500. Regarding `Cc1ccc(C(C)C)c(O)c1` [Thymol], the “MIC Value” worked out at 125 and the “bactericidal activity” value is on record as “good bactericidal activity”.

The values above are taken from patent US6379652B1, “Oral compositions for reducing mouth odors” (Colgate Palmolive Company, priority 2000, dated 2002).
